Reference: ChEMBL document CHEMBL1938230, “6-Position optimization of tricyclic 4-quinolone-based inhibitors of glycogen synthase kinase-3β: discovery of nitrile derivatives with picomolar potency” (Bioorg Med Chem Lett, 2012)

Test system: MAP4K2 (germinal center kinase) (Homo sapiens)
Assay: Inhibition of human GCK in HL-60 cells lysate assessed as reduction of labeling of acyl-phosphate ATP probe at 100 nM

Row | inhibition | SMILES
1 | < 35% | C[C@H]1COc2c(NCCCn3cccn3)c(F)c(N)c3c(=O)c(C#N)cn1c23
2 | < 35% | C[C@H]1COc2c(NCCCc3ccccn3)c(F)c(N)c3c(=O)c(C(=O)O)cn1c23
